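Each compound was tested at five concentrations against cells in 96-well plates for 48 hours. GI50 = concentration required for 50% inhibition of growth. The concentration for full growth arrest is given as TGI.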
Legend:
Experiment in all cases: growth of human tumour cells (NCI), 48 h
[1] = tested on: SF-268 CNS
[2] = tested on: NCI-H226 lung
[3] = tested on: HCT-116 colon
[4] = tested on: HS 578T breast
[5] = tested on: MDA-MB-231 breast
[6] = tested on: SK-OV-3 ovarian
[7] = tested on: K-562 leukemia
[8] = tested on: RPMI-8226 leukemia
[9] = tested on: UACC-62 melanoma
[10] = tested on: OVCAR-3 ovarian
[11] = tested on: ACHN renal
[12] = tested on: SNB-19 CNS
[13] = tested on: MDA-MB-468 breast
[14] = tested on: HOP-92 NSCLC
[15] = tested on: T-47D breast
[16] = tested on: UACC-257 melanoma
[17] = tested on: BT-549 breast
[18] = tested on: LOX IMVI melanoma
[19] = tested on: DU-145 prostate
[20] = tested on: SK-MEL-28 melanoma
[21] = tested on: TK-10 renal
[22] = tested on: SR leukemia
[23] = tested on: SK-MEL-5 melanoma
[24] = tested on: SF-295 CNS
[25] = tested on: SNB-75 CNS
[26] = tested on: HT29 colon
[27] = tested on: SN12C renal
[28] = tested on: KM12 colon
[29] = tested on: IGROV1 ovarian
[30] = tested on: HOP-62 NSCLC
[31] = tested on: HCC-2998 colon
[32] = tested on: OVCAR-8 ovarian
[33] = tested on: MALME-3M melanoma
[34] = tested on: NCI/ADR-RES ovarian
[35] = tested on: UO-31 renal
[36] = tested on: A549 NSCLC
[37] = tested on: MCF7 breast
[38] = tested on: CAKI-1 renal
[39] = tested on: M14 melanoma
[40] = tested on: NCI-H460 lung
[41] = tested on: A498 renal
[42] = tested on: EKVX NSCLC
[43] = tested on: 786-0 renal
[44] = tested on: RXF 393 renal
[45] = tested on: SW-620 colon
[46] = tested on: U251 CNS
[47] = tested on: NCI-H23 lung
[48] = tested on: PC-3 prostate
[49] = tested on: SF-539 CNS
[50] = tested on: OVCAR-4 ovarian
[51] = tested on: MDA-MB-435
[52] = tested on: CCRF-CEM leukemia
[53] = tested on: HL-60(TB) leukemia
[54] = tested on: SK-MEL-2 melanoma
[55] = tested on: HCT-15 colon
[56] = tested on: COLO 205 colon
[57] = tested on: MOLT-4 leukemia
[58] = tested on: NCI-H522 lung
[59] = tested on: OVCAR-5 ovarian

`O=c1[nH]c2ccc(Cl)cc2cc1CSc1ccc(Nc2nccc(-c3ccc(Cl)cc3)n2)cc1` was tested, and the GI50 [1] was 15.3 µM, the TGI [1] was 40.1 µM and the GI50 [2] was 16.5 µM. The TGI [2] was 45.1 µM, the GI50 [3] was 10.6 µM and the TGI [3] was 26.7 µM. The GI50 [4] was 17.3 µM, the TGI [4] was 52 µM and the GI50 [5] was 12.4 µM. For the same compound, the TGI [5] was 28 µM, the GI50 [6] was 18.7 µM and the TGI [6] was 39 µM. The GI50 [7] was 15.8 µM, the TGI [7] was > 100 µM and the GI50 [8] was 86.6 µM. The TGI [8] was > 100 µM, the GI50 [9] was 19.6 µM and the TGI [9] was 45.4 µM. The GI50 [10] was 19.1 µM, the TGI [10] was 37.1 µM and the GI50 [11] was 22 µM. The TGI [11] was 56.1 µM, the GI50 [12] was 15.8 µM and the TGI [12] was 31.5 µM. The GI50 [13] was 10.6 µM, the TGI [13] was 25.3 µM and the GI50 [14] was 15.9 µM. For the same compound, the TGI [14] was 38.3 µM, the GI50 [15] was 29.6 µM and the TGI [15] was > 100 µM. For the same compound, the GI50 [16] was > 100 µM, the TGI [16] was > 100 µM and the GI50 [17] was 15.5 µM. For the same compound, the TGI [17] was 31.8 µM, the GI50 [18] was 20.6 µM and the TGI [18] was 60.9 µM. For the same compound, the GI50 [19] was 15.1 µM, the TGI [19] was 61.7 µM and the GI50 [20] was 22.6 µM. The TGI [20] was 72.3 µM, the GI50 [21] was 18.6 µM and the TGI [21] was 36.2 µM. The GI50 [22] was 69.5 µM, the TGI [22] was > 100 µM and the GI50 [23] was 25.5 µM. For the same compound, the TGI [23] was 99.2 µM, the GI50 [24] was 17.6 µM and the TGI [24] was 36.9 µM. It also gave a GI50 [25] of 11.4 µM, a TGI [25] of 29.7 µM and a GI50 [26] of 13.8 µM. For the same compound, the TGI [26] was > 100 µM, the GI50 [27] was > 100 µM and the TGI [27] was > 100 µM. The GI50 [28] was 30.5 µM, the TGI [28] was > 100 µM and the GI50 [29] was 22.7 µM. It also gave a TGI [29] of 52.5 µM, a GI50 [30] of 16.5 µM and a TGI [30] of 31.7 µM. The GI50 [31] was 25.3 µM, the TGI [31] was > 100 µM and the GI50 [32] was 23.4 µM. The TGI [32] was 72.6 µM, the GI50 [33] was 19.1 µM and the TGI [33] was 50.1 µM. It also gave a GI50 [34] of 14.8 µM, a TGI [34] of 42 µM and a GI50 [35] of 29 µM. The TGI [35] was > 100 µM, the GI50 [36] was 16.9 µM and the TGI [36] was 41.2 µM. It also gave a GI50 [37] of 5.65 µM, a TGI [37] of 28.5 µM and a GI50 [38] of 15.6 µM. For the same compound, the TGI [38] was 38.4 µM, the GI50 [39] was 19.1 µM and the TGI [39] was 50.5 µM. It also gave a GI50 [40] of 6.2 µM, a TGI [40] of 25.5 µM and a GI50 [41] of 20 µM. The TGI [41] was 43.7 µM, the GI50 [42] was 28.1 µM and the TGI [42] was > 100 µM. For the same compound, the GI50 [43] was 17.4 µM, the TGI [43] was 34.3 µM and the GI50 [44] was 12 µM. It also gave a TGI [44] of 26.4 µM, a GI50 [45] of 4.42 µM and a TGI [45] of 20 µM. It also gave a GI50 [46] of 16.5 µM, a TGI [46] of 36.1 µM and a GI50 [47] of 15.3 µM. It also gave a TGI [47] of 30 µM, a GI50 [48] of 9.22 µM and a TGI [48] of 27.8 µM. The GI50 [49] was 15.1 µM, the TGI [49] was 31.1 µM and the GI50 [50] was 16.9 µM. It also gave a TGI [50] of 51 µM, a GI50 [51] of 15.3 µM and a TGI [51] of 40.9 µM. The GI50 [52] was 13.4 µM, the TGI [52] was > 100 µM and the GI50 [53] was 42.9 µM. For the same compound, the TGI [53] was > 100 µM, the GI50 [54] was 20 µM and the TGI [54] was 43 µM. For the same compound, the GI50 [55] was 6.64 µM, the TGI [55] was 24.5 µM and the GI50 [56] was 40.5 µM. The TGI [56] was > 100 µM, the GI50 [57] was 13.5 µM and the TGI [57] was > 100 µM. It also gave a GI50 [58] of 20.1 µM, a TGI [58] of 51.7 µM and a GI50 [59] of 57.8 µM. The TGI [59] was > 100 µM.

Source: PubChem BioAssay (NCI)
